Laboratory results published in patent US20190008819A1, “Methods and Compositions Using Cetyl Myristoleate (CMO) In Medical Treatments” (priority 2017, published 2019).

Experiments:
Format in all cases: in vivo, human
[1] = tested on: middle age person with complex regional pain syndrome; experiment: Case report: complex regional pain syndrome with post-surgery pain
Protocol: A middle age person with complex regional pain syndrome had post-surgery pain. It was so severe that the person was to have foot amputation for the pain. A dosage of 0.1 milligrams to 10 grams of cetyl myristoleate once to four times per day was administered to the person. Shortly, the person described the pain decreased by 20-30 percent.

[2] = tested on: middle age person with shoulder pain; experiment: Case report: shoulder pain, CMO with gabapentin; settings: 0.1 milligrams to 10 grams cetyl myristoleate once to four times per day with an effective dosage gabapentin; one patient
Text: A middle age person was taking a brief CMO regime for shoulder pain.

[3] = tested on: middle age person with knee pain; experiment: Case report: knee pain, CMO with gabapentin; settings: 0.1 milligrams to 10 grams cetyl myristoleate once to four times per day with appropriate dosage gabapentin; one patient
Text: A middle age person was taking a brief CMO regime for knee pain.

[4] = tested on: middle age person with cervical post-surgery syndrome; experiment: Case report: cervical post-surgery syndrome; settings: 0.1 milligrams to 10 grams cetyl myristoleate once to four times per day; one patient
Text: A middle age person experienced cervical post-surgery syndrome.

`CCCC/C=C\CCCCCCCC(=O)OCCCCCCCCCCCCCCCC` [cetyl myristoleate, cis-9-Cetyl myristoleate] was tested, and the “pain decreased (patient described)” value ([1]; 0.1 milligrams to 10 grams cetyl myristoleate once to four times per day, one patient, post-surgery pain) was 20-30%, the amputation outcome ([1]; patient was to have foot amputation for the pain, 0.1 milligrams to 10 grams once to four times per day) was “has not undergone amputation” and the shoulder pain [2] was “decreased dramatically”. The knee pain [3] was “decreased dramatically” and the “post-laminectomy syndrome (PLS)” value [4] was “improved significantly”.
